How the values were obtained:
MOLM-13 = experiment: CellTiter-Glo (CTG) cell proliferation experiment; assay type: cell-based; conditions: Homo sapiens, TP53 wt, FLT3-ITD, 72 hours, read-out: IC50 values, nM (Mean ± SD, n = 2 or 3)
MV-4-11 = experiment: CellTiter-Glo (CTG) cell proliferation experiment; assay type: cell-based; conditions: Homo sapiens, MV4-11, TP53 wt, FLT3-ITD, 72 hours, read-out: IC50 values, nM (Mean ± SD, n = 2 or 3)
OCI-AML-3 = experiment: CellTiter-Glo (CTG) cell proliferation experiment; assay type: cell-based; conditions: Homo sapiens, TP53 wt, FLT3 wt, 72 hours, read-out: IC50 values, nM (Mean ± SD, n = 2 or 3)
HL-60 = experiment: CellTiter-Glo (CTG) cell proliferation experiment; assay type: cell-based; conditions: Homo sapiens, TP53 Del, 72 hours, read-out: IC50 values, nM (Mean ± SD, n = 2 or 3)
A549 = experiment: CTG cell proliferation experiment, NSCLC; assay type: cell-based; conditions: Homo sapiens; A549, STK11 and KRAS co-mutated; 72 hours
Description: (§1) For the combined experiment, the final volume of 2 test substances is 5 μl/well.
(§2) The nonlinear regression data analysis method of Graphpad Prism 6.0 software ([…]) is used for calculating IC50.
(§3) For the combined experiment, the average fluorescence value of the 3 repeated wells of the single drug control is normalized for calculating cell survival rate.

NCI-H2122 = experiment: CTG cell proliferation experiment, NSCLC; assay type: cell-based; conditions: Homo sapiens; NCI-H2122, STK11 and KRAS co-mutated; 72 hours
Description: as §1, §2, §3

NCI-H460 = experiment: CTG cell proliferation experiment, NSCLC; assay type: cell-based; conditions: Homo sapiens; NCI-H460, STK11 and KRAS co-mutated; 72 hours
Description: as §1, §2, §3

MOLM-13 cells = experiment: Annexin V-FITC/PI apoptosis by flow cytometer; assay type: cell-based, human; conditions: 48 hours
From the text: The activation of P53 signaling pathway can induce apoptosis, cycle arrest, or senility of cells. […] Therefore, Annexin V-PI fluorescence probe and flow cytometer are used for analyzing the apoptosis of MOML-13 cells after being treated with compound 2 alone or in combination with Decitabine, Azacitidine or Cytarabine (Ara-C).

[1] = tested on: human MOLM-13 (AML) xenograft tumor; experiment: Systemic MOLM-13 AML mouse xenograft model; assay type: in vivo, NOD SCID mice
From the text: The comparison among three or more groups uses one-way ANOVA. If the F value has a significant difference, multiple comparisons should be carried out after the ANOVA analysis. All data analysis uses SPSS 18.0. Prism (the sixth version) is used for graphing. Attune N×T flow cytometer (Thermo Fisher Scientific Inc.) is used for analyzing tumor infiltrating lymphocytes. Data acquisition and analysis use Analyst Software 1.6.3 work station (AB sciex, Ontario, Canada). For MOLM-13 systemic model, the death date of the last mouse is used for analyzing the median total survival and generating the Kaplan-Meier curve. Logarithmic rank test and Bonferroni multiple test are used for comparing the survival curves of different treatment groups.
For systemic AML model, six- to eight-week-old female NOD SCID mice are pretreated with cyclophosphamide (150 mg/kg, intraperitoneally) continuously for two days. Then the MOLM-13 systemic AML xenograft model is established by inoculating 1×10^7 cells into the caudal vein intravenously.
For systemic AML model, the six- to eight-week-old female NOD SCID mice are pretreated with cyclophosphamide (150 mg/kg, intraperitoneally) continuously for two days. Then the MOLM-13 systemic AML xenograft model is established by inoculating 1×10^7 cells into the caudal vein intravenously. Cells grow 3 days, then are randomly divided into groups for treatment of a single drug or drugs in combination using a carrier, compound 2 (50 mg/kg, is taken orally each day for 7 days), and Aza (1.5 mg/kg, intravenous injection each day for 7 days). In the treatment process and after the treatment is completed, the mice are monitored for the occurrence of hind leg paresis (HLP) or the abdominal swelling caused by disease progression, and a body weight loss >20%.
A systemic MOLM-13 mouse xenograft model is established, and the anti-leukemia effect of compound 2 following the administration regimen of 80 mg/kg dosage, orally (po), and once every two days (q2d) is evaluated in the model (corresponding to the number 57 regimen in table 7). The experiment has two groups, and 15 animals in each group, in one group, 5 animals are used for the analysis of the proportion of CD45+ AML cells, and the remaining 10 animals are used for recording the living condition of the mice. 18 days after the cell inoculation, according to the experimental regimen, 5 animals are selected randomly from each group, bone marrow and spleen are collected, the proportion of human CD45+ AML cells in bone marrow and spleen is analyzed using flow cytometry to evaluate the disease burden of animals.
Systemic tumor model is established by inoculating MOLM-13 tumor cells through caudal vein, the administration starts on the third day after the cell inoculation, and the day of the administration is defined as the first day. Compound 2 is administered following 30 mg/kg, q2d regimens for 21 days. Azacitidine is administered following 1.5 mg/kg, qd regimens for seven days (corresponding to the number 81 regimen in table 7). […]

[2] = tested on: dimethylbenzanthracene-induced rat myelodysplastic syndrome (MDS); experiment: Dimethylbenzanthracene-induced rat myelodysplastic syndrome (MDS) model; assay type: in vivo, SD rat; conditions: p.o., q2d×21 d; for average WBCB value of bone marrow: MDS model group 16.89±2.75; for average PLT value of bone marrow: MDS model group 52±2.49
Description: Multiple human-derived rat MDS model is used for evaluating the in vivo anti-tumor effect of compound 2 alone.
The rat myelodysplastic syndrome (MDS) model is constructed using a chemical mutagenic agent dimethylbenzanthracene (DMBA). in the rat MDS model, the changes of myelogram and hemogram are similar to that of human myelodysplastic syndromes, and it is confirmed that it can be used for the anti-MDS effect study of drugs. DMBA is administered at 50 mg/kg, i.v. Following the once per week regimen for 4 weeks totally to establish the rat MDS model. One week after the end of DMBA administration (day 28), peripheral blood is collected from the caudal vein for routine blood test to determine whether the model is established successfully.
The animals are randomly divided into groups according to the PLT level on day 28, wherein a vehicle control group (Vehicle), two dosage groups of compound 2 (10 mg/kg) and compound 2 (30 mg/kg) (corresponding to the number 23 regimen in table 3), and healthy control group (naive) are totally set, each group has 5 animals.
Compound 2 is administered following 10 mg/kg or 30 mg/kg, p.o., q2d×21 d regimens. After the administration, the peripheral blood and bone marrow cells from each group of animals for routine blood analysis.

[3] = 80 mg/kg, p.o., q2d × 3 w, versus vehicle
[4] = 80 mg/kg, po, q2d, 18 days after cell inoculation

For `CCN1[C@@H](C(=O)NC23CCC(C(=O)O)(CC2)CC3)[C@H](c2cccc(Cl)c2F)[C@]2(C(=O)Nc3cc(Cl)ccc32)C12CCCCC2` [Compound 2], the IC50 (MOLM-13) was 26.8 ± 4.9 nM, the IC50 (MV-4-11) was 166 ± 42.4 nM and the IC50 (OCI-AML-3) was 316 ± 97 nM. It also gave an IC50 (HL-60) of 2560 ± 582 nM, an IC50 (A549) of 33 nM and an IC50 (NCI-H2122) of 79 nM. The IC50 (NCI-H460) was 330 nM, the “MOLM-13 cells being apoptotic (Annexin V+ cells)” value (shortened to “MOLM-13 cells being apoptotic”) (MOLM-13 cells; 40 nM) was “about 31.0%” and the “MOLM-13 cells being apoptotic” value (MOLM-13 cells; 110 nM) was roughly 55.1%. For the same compound, the “MOLM-13 cells being apoptotic” value (MOLM-13 cells; 1000 nM) was roughly 96.8%, the Median survival ([1]; 80 mg/kg, p.o., q2d × 3 w, vehicle 18.5 days) was 37.0 days and the “Prolonged days of survival” value [1, 3] was 18.5 days. The “prolongation of median survival” value [1, 3] was 100%, the “proportion of human CD45+ AML cells in bone marrow” value [1, 4] was “less than 0.1%” and the “proportion of human CD45+ AML cells in spleen” value [1, 4] was “less than 0.1%”. For the same compound, the “Median survival” value ([1]; Compound 2 30 mg/kg q2d 21 days, Azacitidine 1.5 mg/kg qd seven days, vehicle 16 days) was 24 days, the “Prolonged survival” value ([1]; Compound 2 30 mg/kg q2d 21 days, Azacitidine 1.5 mg/kg qd seven days, versus vehicle) was 8 days and the minimum effective dosage ([1]; compound 2 alone, human MOLM-13 systemic xenograft) was 20 mg/kg. For the same compound, the “average WBCB value of bone marrow” value ([2]; 10 mg/kg) was 47.5±10.13 cells/μl, the “average PLT value of bone marrow” value ([2]; 10 mg/kg) was 116±9.35 cells/μl and the “average WBCB value of bone marrow” value ([2]; 30 mg/kg) was 62.53±13.08 cells/μl. For the same compound, the “average PLT value of bone marrow” value ([2]; 30 mg/kg) was 124.2±23.8 cells/μl.

— US12194024B2, “Pharmaceutical composition of MDM2 inhibitor and use thereof for preventing and/or treating disease” (ASCENTAGE PHARMA (SUZHOU) CO., LTD., priority 2019, dated 2025)
